# Laboratory results reported in US5216175A, “Antimalarial analogs of artemisinin” (SRI International, priority 1990, dated 1993).
# Read-outs that look alike come from different tables or passages of the source.
# Columns and labels:
# [1] = system: P. falciparum D-6 clone; assay: In vitro antimalarial activity, P. falciparum D-6 clone; type: cell-based; details: D-6 clone; for IC50: Plasmodium falciparum; for times as potent as QHS against the D-6 clone: relative to QHS
# Excerpt: (§1) The analogs have been segregated arbitrarily here into those compounds in which the tetracyclic skeleton is intact (Table 2) and various ring-cleaved analogs (Table 3). The activities of the conventional malaria therapeutics chloroquine, mefloquine, and pyrimethamine is included for comparison.
# [2] = system: P. falciparum W-2 clone; assay: In vitro antimalarial activity, P. falciparum W-2 clone; type: cell-based; details: W-2 clone; for IC50: Plasmodium falciparum; for times as potent as QHS against the W-2 clone: relative to QHS
# Excerpt: as §1
# [3] = Table 2, drug-resistant strains of P. falciparum, read-out: IC50 W-2 clone
# [4] = Table 2, drawing 57 (artemisinin) = 100
# [5] = Table 2, drug-resistant strains of P. falciparum, read-out: IC50 D-6 clone
# [6] = Table 3, tricyclic analogs, read-out: In vitro IC50 W-2 clone
# [7] = Table 3, tricyclic analogs, read-out: In vitro IC50 D-6 clone
Compound,"In vitro IC50 D-6 clone ([1]; Table 3, tricyclic analogs)","Relative potency (D-6 clone) ([1]; Table 3, tricyclic analogs)","IC50 [2, 3]","Relative potency (W-2 clone) [2, 4]","IC50 [1, 5]","Relative potency (D-6 clone) [1, 4]",times as potent as QHS against the W-2 clone [2],times as potent as QHS against the D-6 clone [1],"IC50 [2, 6]","Relative potency (W-2 clone) ([2]; Table 3, tricyclic analogs)","IC50 [1, 7]"
"(-)-Hexahydro-3,3,10a,11β-tetramethyl-4aH,6H-1,2,4-trioxino-[6.5-j]benzopyran-6-one [compound 4592]",1.28 ng/mL,58,,,,,,,,,
CCC[C@H]1C(=O)O[C@@H]2O[C@@]3(C)CC[C@H]4[C@H](C)CC[C@@H]1[C@@]24OO3 [compound 4599],,,0.04 ng/mL,1225,0.22 ng/mL,550,,,,,
"C[C@@H]1CC[C@H]2[C@@H](C)C(=O)O[C@@H]3O[C@@]4(C)CC[C@@H]1[C@]32OO4 [(+)-Artemisinin, reference compound]",,,2.11 ng/mL,100,4.44 ng/mL,100,,,,,
"C[C@@H]1CC[C@H]2CC(=O)N(C)[C@@H]3O[C@@]4(C)CC[C@@H]1[C@@]23OO4 [compound 4585, (-)-Octahydro-3,6,11-trimethyl-3,12-epoxy-12H-pyridino-[4.3-j] 1,2-benzo dioxepin-10(3H)-one]",,,0.42 ng/mL,502,2.05 ng/mL,214,5 times,21.7 times,,,
"CC1(C)OO[C@]23CCCC[C@H]2CC(=O)O[C@@H]3O1 (relative stereo) [compound 4593, (±)-Hexahydro-3,3-dimethyl-4aH,6H-1,2,4-trioxino-[6.5-j][2] benzopyran-6-one]",,0.4,,,,,,,178 ng/mL,0.5,189 ng/mL
"C[C@@H]1CC[C@H]2C(C)(C)C(=O)O[C@@H]3O[C@@]4(C)CC[C@@H]1[C@]32OO4 [compound 2800, (+)-Octahydro-3,12-epoxy-3,6,9,9-tetramethyl-12H-pyrano [4.3-j]-1,2-benzo dioxepin-10(3H)-one]",,,25.5 ng/mL,0.63,20.9 ng/mL,2.1,,,,,
C[C@@H]1CC[C@H]2CC(=O)N(Cc3ccccc3)[C@@H]3O[C@@]4(C)CC[C@@H]1[C@@]23OO4 [compound 2803],,,0.07 ng/mL,171,0.45 ng/mL,149,,,,,
CCCCCCCCCCCCCC[C@H]1C(=O)O[C@@H]2O[C@@]3(C)CC[C@H]4[C@H](C)CC[C@@H]1[C@@]24OO3 [compound 2818],,,63.9 ng/mL,.0017,81.3 ng/mL,.0017,,,,,
"C[C@@]12CC[C@H]3CCC[C@H]4CC(=O)O[C@H](O1)[C@@]34OO2 (relative stereo) [compound 4580, (±)-6,9-desmethylartemisinin]",,,3.92 ng/mL,48,33.7 ng/mL,12,,,,,
CCO[C@H]1O[C@@H]2O[C@@]3(C)CC[C@H]4[C@H](C)CC[C@@H]([C@H]1CC)[C@@]24OO3 [compound 4598],,,0.18 ng/mL,272,0.22 ng/mL,550,,,,,
C[C@@H]1CC[C@H]2[C@@H](CC(=O)O)C(=O)O[C@@H]3O[C@@]4(C)CC[C@@H]1[C@]32OO4 [compound 4595],,,151 ng/mL,0.3,830 ng/mL,0.15,,,,,
"CCC[C@H]1[C@@H](OCC)O[C@@H]2O[C@@]3(C)CC[C@H]4[C@H](C)CC[C@@H]1[C@@]24OO3 [compound 4600, (+)-Octahydro-3,6-dimethyl-10β-ethoxy-3,12-epoxy-9β-propyl-12H-pyrano[4.3-j]-1,2-benzodioxepine]",,,0.63 ng/mL,76,0.39 ng/mL,120,,,,,
C[C@@H]1CC[C@H]2[C@@H](C)C(=O)O[C@@H]3OC(C)(C)OO[C@@]32C1 [compound 2816],,108,,,,,,,1.46 ng/mL,75,1.29 ng/mL
CC(C)CC[C@H]1C(=O)O[C@@H]2O[C@@]3(C)CC[C@H]4[C@H](C)CC[C@@H]1[C@@]24OO3 [compound 2822],,,0.5 ng/mL,98,0.35 ng/mL,157,,,,,
CC[C@H]1C(=O)O[C@@H]2O[C@@]3(C)CC[C@H]4[C@H](C)CC[C@@H]1[C@@]24OO3 [compound 4586],,,0.18 ng/mL,1226,0.72 ng/mL,642,11.7 times,6.17 times,,,
"CCCC[C@H]1C(=O)O[C@@H]2OC(C)(C)OO[C@@]23CCCC[C@@H]13 (relative stereo) [compound 4590, 7-Butyl-3,3-dimethyl-4aH,6H-hexahydro-1,2,4-trioxino[6.5-j] benzopyran-6-one]",,5,,,,,,,11.8 ng/mL,7,13.9 ng/mL
"OC(c1cc(C(F)(F)F)nc2c(C(F)(F)F)cccc12)C1CCCCN1 (stereo not shown) [Mefloquine, reference compound]",,,2.4 ng/mL,88,43.7 ng/mL,10,,,,,
